Experimental data taken from PMC140036 (BMC Pharmacology, 2003).
Where two headings read alike, the source gives them in different places.

How the values were obtained:
mouse μ opioid receptor [1] = target: T1, mouse μ opioid receptor (Mus musculus, UniProt P42866); assay: cell-based; settings: for Emax: HEK293, read-out: Max Inhibition
mouse μ opioid receptor [2] = target: T1, mouse μ opioid receptor; assay: biochemical; format: binding

T1 sequence (P42866 whole entry): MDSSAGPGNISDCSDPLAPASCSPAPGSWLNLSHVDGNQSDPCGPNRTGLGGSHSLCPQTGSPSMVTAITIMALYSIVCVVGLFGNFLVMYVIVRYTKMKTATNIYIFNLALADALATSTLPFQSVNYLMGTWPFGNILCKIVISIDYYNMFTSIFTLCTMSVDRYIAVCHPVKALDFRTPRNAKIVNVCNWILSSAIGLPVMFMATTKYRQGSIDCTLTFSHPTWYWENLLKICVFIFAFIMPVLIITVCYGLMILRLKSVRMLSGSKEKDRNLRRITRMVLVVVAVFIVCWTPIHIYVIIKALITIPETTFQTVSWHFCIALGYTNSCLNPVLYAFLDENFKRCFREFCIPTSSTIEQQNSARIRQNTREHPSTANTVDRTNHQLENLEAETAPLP

| SMILES | IC50 (mouse μ opioid receptor [1]) [nM] | Emax (mouse μ opioid receptor [1]) [%] | Ki (mouse μ opioid receptor [2]) [nM] | Max Inhibition (mouse μ opioid receptor [1]) | IC50 (mouse μ opioid receptor [1]; read-out: IC50 ± SEM) [nM] |
| --- | --- | --- | --- | --- | --- |
| Oc1ccc2c(c1)[C@@]13CCCC[C@@]1(O)[C@@H](C2)N(CC1CCC1)CC3 [Butorphanol] | 3 ± 2 | 58 ± 5 | – | – | – |
| C[C@H]1[C@H]2Cc3ccc(O)cc3[C@]1(C)CCN2CC1CC1 [Cyclazocine] | 21 ± 8 | 37 ± 2 | 0.22 ± 0.02 | – | – |
| C[C@@H](NC(=O)[C@@H](N)Cc1ccc(O)cc1)C(=O)NCC(=O)N(C)[C@@H](Cc1ccccc1)C(=O)NCCO [DAMGO] | – | – | – | 58 ± 5% | – |
| C[C@@]12CCCCC[C@@H](Cc3ccc(O)cc31)[C@@H]2N [Dezocine] | 1.3 ± 0.6 | 43 ± 2 | – | – | – |
| C[C@H]1[C@H]2Cc3ccc(O)cc3[C@]1(C)CCN2C [Metazocine] | 2 ± 0.1 | 41 ± 4 | – | – | – |
| C=CCN1CC[C@]23c4c5ccc(O)c4O[C@H]2[C@@H](O)C=C[C@H]3[C@H]1C5 [Nalorphine] | 2.7 ± 1.4 | 50 ± 2 | – | – | – |
| C=C1C[C@H](C)[C@H]2[C@H]3Cc4ccc(O)cc4[C@@]2(CCN3CC2CCC2)C1 [Xorphanol] | – | – | – | 29 ± 2 ⊕⊕^## % | 3.4 ± 1.7 |
